Experimental data as given in US11291646B2, “Nozzle assembly and methods for use” (CRITITECH, INC., priority 2015, dated 2022).

Assay: Bulk density
Assay type: physicochemical
Details: docetaxel; room temperature
Protocol: The mass of the drug was measured to a nearest 0.1 mg, the volume was determined to the nearest 0.1 mL and the density calculated.

## CC(=O)O[C@@]12CO[C@@H]1C[C@H](O)[C@@]1(C)C(=O)[C@H](O)C3=C(C)[C@@H](OC(=O)[C@H](O)[C@@H](NC(=O)OC(C)(C)C)c4ccccc4)C[C@@](O)([C@@H](OC(=O)c4ccccc4)[C@H]21)C3(C)C [Docetaxel Raw Material, docetaxel]
  Bulk Density: 0.24 g/cm3
